Measurements published in patent US20240360157A1, “TYK2 INHIBITORS” (BIOGEN MA INC., priority 2021, published 2024).
Counter-ions that a name gives are not always drawn.

What was measured:
Type in all cases: biochemical
[1] = target: human TYK2 catalytic kinase (JH1) domain (Homo sapiens (Human), UniProt P29597); assay: ADP-Glo Kinase Assay, recombinant TYK2 catalytic kinase (JH1) domain; conditions: recombinant JH1 domain 2 nM, 10 μM ATP, JAK3-974 peptide, mean, read-out: TYK2 biochem IC50 (nM) Mean
Outline: (§1)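 Reactions contain 50 μM peptide and run 100 minutes, with enzyme at 4, 0.2, 0.3 and 2 nM for JAK1, JAK2, JAK3 and TYK2. Generated ADP is read by luminescence; IC50 derives from normalized dose-response curves.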

[2] = target: human JAK1 catalytic kinase (JH1) domain (Homo sapiens (Human), UniProt P23458); assay: ADP-Glo Kinase Assay, recombinant JAK1 catalytic kinase (JH1) domain; conditions: recombinant JH1 domain 4 nM, 35 μM ATP, JAK3-342 peptide, mean, read-out: JAK1 biochem IC50 (nM) Mean
Outline: as §1

[3] = target: human JAK2 catalytic kinase (JH1) domain (Homo sapiens (Human), UniProt O60674); assay: ADP-Glo Kinase Assay, recombinant JAK2 catalytic kinase (JH1) domain; conditions: recombinant JH1 domain 0.2 nM, 15 μM ATP, JAK3-974 peptide, mean, read-out: JAK2 biochem IC50 (nM) Mean
Outline: as §1

[4] = target: human JAK3 catalytic kinase (JH1) domain (Homo sapiens (Human), UniProt P52333); assay: ADP-Glo Kinase Assay, recombinant JAK3 catalytic kinase (JH1) domain; conditions: recombinant JH1 domain 0.3 nM, 4 μM ATP, JAK3-974 peptide, mean, read-out: JAK3 biochem IC50 (nM) Mean
Outline: as §1

Chain of human JAK2 catalytic kinase (JH1) domain (O60674 849-1124): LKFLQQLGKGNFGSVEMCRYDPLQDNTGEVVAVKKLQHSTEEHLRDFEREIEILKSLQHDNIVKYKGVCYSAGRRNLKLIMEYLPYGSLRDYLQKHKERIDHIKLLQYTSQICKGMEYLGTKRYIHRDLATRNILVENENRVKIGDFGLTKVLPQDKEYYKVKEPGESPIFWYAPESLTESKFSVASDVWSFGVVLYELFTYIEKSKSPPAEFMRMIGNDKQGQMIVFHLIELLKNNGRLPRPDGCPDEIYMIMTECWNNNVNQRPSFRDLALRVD
Chain of human JAK1 catalytic kinase (JH1) domain (P23458 875-1153): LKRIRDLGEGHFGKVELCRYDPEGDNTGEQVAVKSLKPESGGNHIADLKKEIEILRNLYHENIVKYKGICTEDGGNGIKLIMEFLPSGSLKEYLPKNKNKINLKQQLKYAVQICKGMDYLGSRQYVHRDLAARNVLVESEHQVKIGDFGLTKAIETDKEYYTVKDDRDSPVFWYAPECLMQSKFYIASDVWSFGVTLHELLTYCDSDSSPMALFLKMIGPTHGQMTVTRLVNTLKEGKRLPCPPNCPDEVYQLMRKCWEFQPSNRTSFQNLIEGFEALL
Chain of human TYK2 catalytic kinase (JH1) domain (P29597 897-1176): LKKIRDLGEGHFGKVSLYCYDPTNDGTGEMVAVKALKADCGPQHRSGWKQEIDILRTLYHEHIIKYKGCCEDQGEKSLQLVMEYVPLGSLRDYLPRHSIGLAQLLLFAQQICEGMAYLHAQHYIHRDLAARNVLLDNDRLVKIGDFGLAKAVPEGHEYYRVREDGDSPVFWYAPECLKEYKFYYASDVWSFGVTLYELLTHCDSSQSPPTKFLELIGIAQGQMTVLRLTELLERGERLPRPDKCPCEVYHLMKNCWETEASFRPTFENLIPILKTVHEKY
Chain of human JAK3 catalytic kinase (JH1) domain (P52333 822-1111): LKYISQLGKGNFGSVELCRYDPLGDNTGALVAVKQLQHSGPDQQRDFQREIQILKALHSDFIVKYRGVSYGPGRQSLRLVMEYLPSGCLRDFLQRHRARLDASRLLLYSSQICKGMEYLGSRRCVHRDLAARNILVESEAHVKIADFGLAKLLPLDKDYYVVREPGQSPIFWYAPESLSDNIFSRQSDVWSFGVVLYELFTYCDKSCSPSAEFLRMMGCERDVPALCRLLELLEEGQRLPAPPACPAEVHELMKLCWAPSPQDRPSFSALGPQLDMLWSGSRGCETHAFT

Row | SMILES | IC50 [1] [nM] | IC50 [2] [nM] | IC50 [3] [nM] | IC50 [4] [nM]
1 | C[C@]1(F)C[C@H](C(=O)N2C3CCC2CN(c2ncnn4cc(-c5cnn(C(F)F)c5)cc24)C3)C1 [Example 34, (3-(6-(1-(difluoromethyl)-1H-pyrazol-4-yl)pyrrolo[2,1-f][1,2,4]triazin-4-yl)-3,8-diazabicyclo[3.2.1]octan-8-yl)((1r,3r)-3-fluoro-3-methylcyclobutyl)methanone trifluoroacetate] | 510 | 3190 | 7520 | 9510
2 | COc1cc(-n2cc3nccc(N4CC5CCC(C4)N5C(=O)[C@@H]4C[C@H]4F)c3n2)ccn1 [Example 37, ((1S,2R)-2-fluorocyclopropyl)(3-(2-(2-methoxypyridin-4-yl)-2H-pyrazolo[4,3-b]pyridin-7-yl)-3,8-diazabicyclo[3.2.1]octan-8-yl)methanone] | 11 | 72 | 88 | 868
3 | Cn1cc(-c2cc3c(N4CC5CCC(C4)N5C(=O)C4CC4)ccnc3[nH]2)cn1 [Example 236, cyclopropyl(3-(2-(1-methyl-1H-pyrazol-4-yl)-1H-pyrrolo[2,3-b]pyridin-4-yl)-3,8-diazabicyclo[3.2.1]octan-8-yl)methanone] | 3.8 | 145 | 99 | 253
4 | O=C(C1CC1)N1C2CCC1CN(c1ncnn3cc(-c4cccnc4)cc13)C2 [Example 183] | 557 | 3290 | 10000 | 8640
5 | O=C(C1CC(O)(C(F)(F)F)C1)N1C2CCC1CN(c1ncnn3cc(-c4cnn(C(F)F)c4)cc13)C2 (stereo not shown) [Example 36, (3-(6-(1-(difluoromethyl)-1H-pyrazol-4-yl)pyrrolo[2,1-f][1,2,4]triazin-4-yl)-3,8-diazabicyclo[3.2.1]octan-8-yl)(3-hydroxy-3-(trifluoromethyl)cyclobutyl)methanone trifluoroacetate] | 968 | 2200 | 7490 | 5840
6 | O=C([C@@H]1C[C@H]1F)N1C2CCC1CN(c1ccnc3[nH]c(C4CCC4)nc13)C2 [Example 209, (3-(2-cyclobutyl-3H-imidazo[4,5-b]pyridin-7-yl)-3,8-diazabicyclo[3.2.1]octan-8-yl)((1S,2R)-2-fluorocyclopropyl)methanone] | 358 | 1710 | 8500 | 8590
7 | O=C([C@@H]1CC1(F)F)N1C2CCC1CN(c1ncnn3cc(-c4cnn(C(F)F)c4)cc13)C2 [Example 3, ((S)-2,2-difluorocyclopropyl)(3-(6-(1-(difluoromethyl)-1H-pyrazol-4-yl)pyrrolo[2,1-f][1,2,4]triazin-4-yl)-3,8-diazabicyclo[3.2.1]octan-8-yl)methanone] | 27.8 | 653 | 714 | 6160
8 | Cc1cc(-c2cc3c(N4CC5CCC(C4)N5C(=O)[C@@H]4C[C@H]4F)ccnn3c2)ccn1 [Example 100, ((1S,2R)-2-fluorocyclopropyl)(3-(6-(2-methylpyridin-4-yl)pyrrolo[1,2-b]pyridazin-4-yl)-3,8-diazabicyclo[3.2.1]octan-8-yl)methanone] | 2.5 | 26 | 43 | 756
9 | O=C(C1CC1)N1C2CCC1CN(c1ncnn3cc(-c4cnn(C5CCOCC5)c4)cc13)C2 [Example 153] | 99.2 | 1280 | 1520 | 1900
10 | O=C(C1CC1)N1C2CCC1CN(c1ccnn3cc(-c4cnn(C(F)F)c4)cc13)C2 [Example 16, cyclopropyl(3-(6-(1-(difluoromethyl)-1H-pyrazol-4-yl)pyrrolo[1,2-b]pyridazin-4-yl)-3,8-diazabicyclo[3.2.1]octan-8-yl)methanone] | 13.8 | 264 | 257 | 1040
11 | COc1ccc(-c2cc3c(N4CC5CCC(C4)N5C(=O)[C@@H]4C[C@H]4F)ccnn3c2)cn1 [Example 114, ((1S,2R)-2-fluorocyclopropyl)(3-(6-(6-methoxypyridin-3-yl)pyrrolo[1,2-b]pyridazin-4-yl)-3,8-diazabicyclo[3.2.1]octan-8-yl)methanone] | 3.8 | 54 | 47 | 684
12 | Cc1ccc(-c2cc3c(N4CC5CCC(C4)N5C(=O)[C@@H]4C[C@H]4F)ccnn3c2)nn1 [Example 125, ((1S,2R)-2-fluorocyclopropyl)(3-(6-(6-methylpyridazin-3-yl)pyrrolo[1,2-b]pyridazin-4-yl)-3,8-diazabicyclo[3.2.1]octan-8-yl)methanone] | 8.8 | 236 | 49 | 1010
13 | CNc1cc(-c2cc3c(N4CC5CCC(C4)N5C(=O)[C@@H]4C[C@H]4F)ncnn3c2)ccn1 [Example 94, ((1S,2R)-2-fluorocyclopropyl)(3-(6-(2-(methylamino)pyridin-4-yl)pyrrolo[2,1-f][1,2,4]triazin-4-yl)-3,8-diazabicyclo[3.2.1]octan-8-yl)methanone] | 18.6 | 230 | 590 | 2940
14 | Cn1cc(-c2cc3c(N4CC5CCC(C4)N5C(=O)[C@@H]4C[C@H]4F)ccnn3c2)cc(F)c1=O [Example 174] | 6.6 | 149 | 84 | 1600
15 | CNc1nccc(-c2cc3c(N4CC5CCC(C4)N5C(=O)[C@@H]4C[C@H]4F)ccnn3c2)n1 [Example 126, ((1S,2R)-2-fluorocyclopropyl)(3-(6-(2-(methylamino)pyrimidin-4-yl)pyrrolo[1,2-b]pyridazin-4-yl)-3,8-diazabicyclo[3.2.1]octan-8-yl)methanone] | 8.8 | 54 | 98 | 1460
16 | CCn1cc(-c2cc3c(N4CC5CCC(C4)N5C(=O)C4CC4)ncnn3c2)cn1 [Example 147] | 147 | 974 | 2960 | 2090
17 | COc1cc(-c2cc3c(N4CC5CCC(C4)N5C(=O)[C@@H]4C[C@H]4F)ncnc3[nH]2)ccn1 [Example 231, ((1S,2R)-2-fluorocyclopropyl)(3-(6-(2-methoxypyridin-4-yl)-7H-pyrrolo[2,3-d]pyrimidin-4-yl)-3,8-diazabicyclo[3.2.1]octan-8-yl)methanone] | 12.4 | 115 | 307 | 877
18 | Cn1cc(-c2cc3c(N4CC5CCC(C4)N5S(=O)(=O)C4CC4)ccnc3[nH]2)cn1 [Example 193] | 10.1 | 200 | 36 | 199
19 | O=C([C@@H]1C[C@H]1CO)N1C2CCC1CN(c1ncnn3cc(-c4cnn(C(F)F)c4)cc13)C2 (single isomer, unassigned) [Example 40] | 289 | 5120 | 9400 | ≥ 10000
20 | Cn1cc(-c2cn3nccc(N4CC5CCC(C4)N5C(=O)[C@@H]4C[C@H]4F)c3n2)cn1 [Example 252, ((1S,2R)-2-fluorocyclopropyl)(3-(2-(1-methyl-1H-pyrazol-4-yl)imidazo[1,2-b]pyridazin-8-yl)-3,8-diazabicyclo[3.2.1]octan-8-yl)methanone] | 4 | 28 | 28 | 269
21 | N#C[C@H]1C[C@@H]1C(=O)N1C2CCC1CN(c1ncnn3cc(-c4cnn(C(F)F)c4)cc13)C2 (racemic) [Example 53, Rac-(1S,2S)-2-(3-(6-(1-(difluoromethyl)-1H-pyrazol-4-yl)pyrrolo[2,1-f][1,2,4]triazin-4-yl)-3,8-diazabicyclo[3.2.1]octane-8-carbonyl)cyclopropane-1-carbonitrile] | 166 | 840 | 3380 | 7370
22 | CCC(=O)N1C2CCC1CN(c1ncnn3cc(-c4cnn(C)c4)cc13)C2 [Example 57, 1-(3-(6-(1-methyl-1H-pyrazol-4-yl)pyrrolo[2,1-f][1,2,4]triazin-4-yl)-3,8-diazabicyclo[3.2.1]octan-8-yl)propan-1-one] | 941 | 5140 | 10000 | 7850
23 | O=C(C1CC1)N1C2CCC1CN(c1ncnn3cc(-c4cnn(C5CCOC5)c4)cc13)C2 (stereo not shown) [Example 152] | 145 | 1670 | 2150 | 2590
24 | O=C([C@@H]1C[C@H]1F)N1C2CCC1CN(c1ccnn3cc(-c4ccc(F)nc4)cc13)C2 [Example 169] | 1.8 | 47 | 49 | 288
25 | CC1C(C(=O)N2C3CCC2CN(c2ncnn4cc(-c5cnn(C(F)F)c5)cc24)C3)C1(F)F (stereo not shown) [Example 5, (2,2-difluoro-3-methylcyclopropyl)(3-(6-(1-(difluoromethyl)-1H-pyrazol-4-yl)pyrrolo[2,1-f][1,2,4]triazin-4-yl)-3,8-diazabicyclo[3.2.1]octan-8-yl)methanone] | 93.1 | 707 | 3050 | 3700
